Patent EP2276481B1, “USE OF BENZO-FUSED HETEROCYCLE SULFAMIDE DERIVATIVES FOR THE TREATMENT OF ANXIETY” (Janssen Pharmaceutica, N.V., priority 2008, dated 2009)

Tests used:
Male Rj:NMRI mice = assay: Elevated Plus Maze, Mouse (EPM); assay type: in vivo; settings: for Closed Arms Number of Entries % change / Open Arms Number of Entries % change / Open Arms Time Spent (sec) % change: change from vehicle control
Text: Rodents avoid open spaces (in the case of the assay apparatus, the open arms of an elevated plus-maze). Compounds which have anti-anxiety activity increase exploratory activity of the rodents in the open arms of the elevated plus-maze. The EPM assay was run according to the procedure as described by Handley and Mithani (Naunyn. Schmied. Arch. Pharmacol., 327, 1-5, 1984).
Male Rj:NMRI mice, weighing 20 - 30 g (max. range per experiment = 5 g) at the beginning of the experiments, were obtained from Elevage Janvier, 53940 Le Genest-Saint-Isle, France and used in the assay. The animals were delivered to the laboratory at least 5 days before the experiments during which time they were acclimatized to laboratory conditions. The mice were housed in groups of 10 in Macrolon cages (25 x 19 x 13 cm) on wood litter (Litalabo-SPPS, 95100 Argenteuil, France) with free access to food (Code 113 - SAFE, 89290 Augy, France) and water until tested (or as indicated otherwise). The animal house was maintained under artificial lighting (12 hours) between 7:00 and 19:00 in a controlled ambient temperature of 21 ± 3°C, and relative humidity between 30-80%.
The elevated plus-maze consisted of 4 arms of equal length and width (14 x 5 cm) arranged in the form of a plus sign (+). Two opposite arms were enclosed by 12 cm high walls (closed arms). The 2 other arms had no walls (open arms). The maze was raised 56 cm above the floor. A mouse was placed in the centre of the plus-maze and left to explore the maze for 5 minutes. The number of entries into the open and closed arms and the time spent in the open arms was recorded. Ten (10) mice were used for each study group. The test was performed blind.
(§1) Compound #8 was evaluated at 30 mg/kg, 60 mg/kg and 120 mg/kg doses, administered p.o. 60 minutes before the test, and compared with a vehicle control group. Compound #8 was homogenized and dispersed using a mortar and a pestle in 0.2% hydroxypropylmethylcellulose (HPMC) in distilled water, which served as the vehicle. As a positive control, Clobazam (16 mg/kg p.o.), was administered under the same experimental conditions. Clobazam as URBANYL®tablets (16 mg/kg p.o.) were dispersed in 0.2% hydroxypropylmethylcellulose (HPMC) in distilled water for administration. Each experiment therefore included 5 study groups of 10 mice each.
Data were analyzed by comparing groups treated with compound #8 with groups treated with vehicle control using unpaired Student's t tests. Table 4: Effect of Compound #8 in EPM

Mouse = assay: Four Plate Test, Mouse; assay type: in vivo; settings: for Number of Punished Crossings % Change: change from vehicle control
Text: The Four Plate assay was run according to the procedure as described by Aron et al (Neuropharmacology, 10, 459-469, 1971). In this assay, the rodent experiences an electric shock upon crossing from one plate to another. Anxiolytics (such as benzodiazepines) increase the number of punished crossings.
Animals were placed individually in a white plastic enclosure containing a floor consisting of 4 metal plates connected to an electric shock generator (Apelex : Type 011346). The mouse was left to explore freely for 15 seconds. Then, every time the mouse crossed from one plate to another, it received a weak electric shock (2.5 mA, 1.5 s). The number of punished crossings were counted during a 1 minute test. Ten (10) mice were used for each study group. The test was performed blind.
as §1, with “(32” for “(16”
Data were analyzed by comparing groups treated with compound #8 with groups treated with vehicle control using unpaired Student's t tests. Table 5: Effect of Compound #8 in Four Plate

[1] = 16 mg/kg p.o., positive control, same experimental conditions, t test vs vehicle p < 0.001
[2] = 16 mg/kg p.o., positive control
[3] = 30 mg/kg p.o. 60 minutes before the test, 5 minutes in maze, t test vs vehicle (NS)
[4] = 30 mg/kg p.o. 60 minutes before the test
[5] = 60 mg/kg p.o. 60 minutes before the test, 5 minutes in maze, t test vs vehicle p < 0.01
[6] = 60 mg/kg p.o. 60 minutes before the test
[7] = 120 mg/kg p.o. 60 minutes before the test, 5 minutes in maze, t test vs vehicle p < 0.05
[8] = 120 mg/kg p.o. 60 minutes before the test

Q: With `CN1C(=O)CC(=O)N(c2ccccc2)c2cc(Cl)ccc21` [CLOBAZAM, Clobazam, reference compound] as the molecule, how does the “Open Arms Number of Entries Mean ± S.E.M.” value (Male Rj:NMRI mice; [1]) read?
A: The value was 11.7 ± 1.1 (***).

Q: And the “Open Arms Time Spent (sec) Mean ± S.E.M.” value (Male Rj:NMRI mice; [1])?
A: Its value is 120.1 ± 13.1 s.

Q: What about the “Closed Arms Number of Entries Mean ± S.E.M.” value (Male Rj:NMRI mice; 16 mg/kg p.o., positive control, same experimental conditions, t test vs vehicle p < 0.05) of the same molecule?
A: The value was 11.9 ± 1.5 (*).

Q: What about the “Closed Arms Number of Entries % change” value (Male Rj:NMRI mice; [2]) of the same molecule?
A: Its value is “+59%”.

Q: What about the “Open Arms Number of Entries % change” value (Male Rj:NMRI mice; [2]) of the same molecule?
A: Its value is “+350%”.

Q: What about the “Open Arms Time Spent (sec) % change” value (Male Rj:NMRI mice; [2]) of the same molecule?
A: The value was “+567%”.

Q: And the “Number of Punished Crossings Mean ± S.E.M.” value (Mouse; 32 mg/kg p.o., positive control, same experimental conditions, t test vs vehicle p < 0.001)?
A: Its value is 9.9 ± 1.2 (***).

Q: What does the source list for `NS(=O)(=O)NC[C@H]1COc2cc(Cl)ccc2O1` [Compound #8, (2S)-(-)-N-(6-Chloro-2,3-dihydro-benzo[1,4]dioxin-2-ylmethyl)-sulfamide]?
A: Closed Arms Number of Entries Mean ± S.E.M. (Male Rj:NMRI mice; [3]): 8.5 ± 0.9 (NS); Open Arms Number of Entries Mean ± S.E.M. (Male Rj:NMRI mice; [3]): 3.9 ±0.7 (NS); Open Arms Time Spent (sec) Mean ± S.E.M. (Male Rj:NMRI mice; 30 mg/kg p.o. 60 minutes before the test, 5 minutes in maze, t test vs vehicle p < 0.01): 44.6 ± 8.0 s; Closed Arms Number of Entries % change (Male Rj:NMRI mice; [4]): +13%; Open Arms Number of Entries % change (Male Rj:NMRI mice; [4]): +50%; Open Arms Time Spent (sec) % change (Male Rj:NMRI mice; [4]): +148%; Closed Arms Number of Entries Mean ± S.E.M. (Male Rj:NMRI mice; [5]): 10.3 ± 0.8 (**); Open Arms Number of Entries Mean ± S.E.M. (Male Rj:NMRI mice; [5]): 5.9 ± 1.0 (**); Open Arms Time Spent (sec) Mean ± S.E.M. (Male Rj:NMRI mice; [5]): 54.1 ± 10.6 s; Closed Arms Number of Entries % change (Male Rj:NMRI mice; [6]): +37%; Open Arms Number of Entries % change (Male Rj:NMRI mice; [6]): +127%; Open Arms Time Spent (sec) % change (Male Rj:NMRI mice; [6]): +201%; Open Arms Time Spent (sec) Mean ± S.E.M. (Male Rj:NMRI mice; 120 mg/kg p.o. 60 minutes before the test, 5 minutes in maze, t test vs vehicle p < 0.01): 38.6 ± 5.2 s; Closed Arms Number of Entries Mean ± S.E.M. (Male Rj:NMRI mice; [7]): 10.0 ± 1.1 (*); Open Arms Number of Entries Mean ± S.E.M. (Male Rj:NMRI mice; [7]): 4.5 ± 0.6 (*); Closed Arms Number of Entries % change (Male Rj:NMRI mice; [8]): +33%; Open Arms Number of Entries % change (Male Rj:NMRI mice; [8]): +73%; Open Arms Time Spent (sec) % change (Male Rj:NMRI mice; [8]): +114%; Number of Punished Crossings Mean ± S.E.M. (Mouse; 30 mg/kg p.o. 60 minutes before the test, 1 minute test, t test vs vehicle (NS)): 4.5 ± 0.6 (NS); Number of Punished Crossings % Change (Mouse; [4]): +15%; Number of Punished Crossings Mean ± S.E.M. (Mouse; 60 mg/kg p.o. 60 minutes before the test, 1 minute test, t test vs vehicle (NS)): 4.5 ± 0.3 (NS); Number of Punished Crossings % Change (Mouse; [6]): +15%; Number of Punished Crossings Mean ± S.E.M. (Mouse; 120 mg/kg p.o. 60 minutes before the test, 1 minute test, t test vs vehicle p < 0.01): 6.6 ± 0.6 (**); Number of Punished Crossings % Change (Mouse; [8]): +69%
